From patent US10736971B2, “Peptide-based molecules for modulating car expression or accessibility and uses thereof” (Wright State University, priority 2015, dated 2020)
Residues, ends and D or L forms follow the SMILES beside them.

Experiments:
[1] = target: MAGI-1 PDZ1 domain (Homo sapiens, UniProt Q96QZ7); assay: Ligand binding assay with purified MAGI-1 PDZ1 domain
Excerpt: Ligand binding assay between TAT-ESAM and purified MAGI-1 PDZ1 or PDZ-3.
MAGI-1 PDZ3 domain was used as a control.

[2] = test system: CAR^Ex8; assay: Western blot / apical surface biotinylation of CAR^Ex8 in MDCK epithelia; format: cell-based, canine
Excerpt: (§1) MAGI-1 PDZ binding peptides (BP) can alter CAR^EX8 apical protein levels and AdV infection. […] A) MAGI-1 PDZ1 can rescue CAR^Ex8 expression while PDZ3 decreases CAR^EX8 expression. B) Peptides that bind to PDZ3 will prevent degradation of CAR^Ex8 and rescue CAR^EX8 expression and C) peptides that bind to PDZ1 will prevent rescue of CAR^Ex8 and […] CAR^Ex8 degradation. D) Apical surface-specific biotinylation of polarized MDCK epithelia treated with PDZ1 binding peptide decreases apical levels of CAR^EX8 while PDZ3 binding peptide increase apical CAR^EX8, relative to control. E) Treatment with PDZ3 binding peptide increases while PDZ1 binding peptide decreases AdV5-β-Gal entry as determined by qPCR for viral genomes (Vg). F) AdV5-Cre infection turns cells from red (uninfected) to green (infected) in tDT-mouse airway epithelial cells. Baseline infection in control-peptide treated airway epithelia show an even distribution of uninfected red cells and infected green cells.
(§2) (A) Western blotting of MDCK cells treated with either TAT-CAR^Ex8 or control TAT-CAR^Ex8-AA. […] (C) Polarized MDCK cells were treated with either TAT-CAR^Ex8 or TAT-ESAM and the apical surface subjected to apical surface biotinylation, followed by neutravidin pull down and Western blot of apical surface proteins. […] (E) TAT-cell permeable peptides interrupt MAGI-1-CAR^Ex8 interactions. […]

[3] = test system: AdV; assay: qPCR of AdV viral genome (transduction/entry) in MDCK epithelia; format: cell-based, canine; details: versus control
Excerpt: as §1, §2

[4] = test system: CAR^Ex8; assay: Immunocytochemistry of CAR^Ex8 in polarized MDCK cells; format: cell-based, canine; details: 50 μM
Excerpt: CAR^Ex8 is localized mainly at the apical surface of polarized MDCK cells. […] Red (CAR^Ex8), Green (MAGI-1, a junctional protein), Blue (nucleus, DAPI). 60× oil immersion confocal microscopy.
(A) CAR^Ex8 (red) localizes mainly at the apical membrane of MDCK epithelial cells (see xz section). […] 60× oil immersion confocal microscopy.

[5] = test system: CAR^Ex8; assay: Western blot of CAR^Ex8 in well differentiated primary human airway epithelia; format: cell-based; details: versus control
Excerpt: (A) Western blotting from human airway epithelia treated with either TAT-scramble or TAT-PDZ1 peptides (TAT-E6 or TAT-NET1). […] Actin was used to confirm equal protein loading.

[6] = test system: AdV; assay: qPCR of AdV viral genome in primary human airway epithelia; format: cell-based; details: versus control
[7] = test system: primary human airway epithelia; assay: Epithelial integrity (TER, FITC-Dextran diffusion) and toxicity; format: cell-based
Experimental: In panel (A), epithelial cells were seeded on transwells and treated with a single dose of PBS, TAT-scramble or TAT-PDZ3 (TAT-CAR^Ex8 or TAT-ESAM) peptides (50 μM) daily for 16 days. Transepithelial resistance (TER) was measured every other day for 16 days to indicate the amount of epithelial polarization. […] Each condition represents the average of 4 replicates. (B) FITC-Dextran 4 kDa diffusion across treated epithelia in the absence of EDTA. […] (C) Pre-treatment with EDTA to disrupt tight junctions increased Dextran 4 kDa permeability in all conditions. FITC-Dextran 4 kDa was added to the apical membrane compartment and Dextran present in the basolateral media was measured and quantified. […] FITC-Dextran 70 kDa was added to the apical membrane compartment and Dextran in the basolateral media was measured and quantified.
(A) Primary human airway epithelial cells were treated with a single dose of PBS, TAT-scramble (50 μM), or TAT-PDZ1 peptides (50 μM) each day for 14 days. Transepithelial resistance (TER) was taken every other day for 14 days. No change in TER was noticeable upon treatment with TAT-PDZ1 peptides indicating similar epithelium formation. (B) FITC-Dextran 4 kDa diffusion across treated epithelia in the presence or absence of EDTA. There was no difference in Dextran 4 kDa diffusion among treatments indicating intact epithelial tight junctions. Pre-treatment with EDTA increased Dextran 4 kDa permeability similarly in all conditions indicating disruption of epithelial tight junctions. FITC-Dextran 4 kDa was added to the apical membrane and the diffused Dextran was collected from the basolateral media and measured. (C) There was no difference in Dextran 70 kDa diffusion among treatments indicating intact epithelial tight junctions. FITC-Dextran 70 kDa was added to the apical membrane and the diffused Dextran was collected from the basolateral media and measured.

Sequence of MAGI-1 PDZ1 domain (Q96QZ7 472-554 limits assumed): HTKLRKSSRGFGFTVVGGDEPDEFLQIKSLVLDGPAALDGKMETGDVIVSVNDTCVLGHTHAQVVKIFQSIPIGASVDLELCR

Structure (SMILES): CC(C)C[C@H](NC(=O)[C@H](CCC(N)=O)NC(=O)[C@@H](NC(=O)[C@H](CCC(=O)O)NC(=O)[C@H](CCCNC(=N)N)NC(=O)[C@H](CCCNC(=N)N)NC(=O)[C@@H](NC(=O)[C@H](CCCNC(=N)N)NC(=O)[C@H](CO)NC(=O)[C@H](CCC(N)=O)NC(=O)[C@@H]1CCCN1C(=O)[C@@H]1CCCN1C(=O)[C@H](CCCNC(=N)N)NC(=O)[C@H](CCCNC(=N)N)NC(=O)[C@H](CCCNC(=N)N)NC(=O)[C@H](CCC(N)=O)NC(=O)[C@H](CCCNC(=N)N)NC(=O)[C@H](CCCNC(=N)N)NC(=O)[C@H](CCCCN)NC(=O)[C@H](CCCCN)NC(=O)[C@H](CCCNC(=N)N)NC(=O)CN)[C@@H](C)O)[C@@H](C)O)C(=O)O [TAT-E6] (H-GRKKRRQRRRPPQSRTRRETQL-OH; N-terminus and C-terminus assumed)
- Kd [1]: 0.015 ± 0.004 µM
- CAR^Ex8 protein level (Western blotting) [2]: marked decrease
- AdV genomic transduction / entry (qPCR of viral genome) [3]: significant decrease
- Effect on junctional staining of MAGI-1 [4]: minor to no effect
- Immunolocalization of endogenous CAR^Ex8 [4]: delocalization of CAR^Ex8 to the nuclear compartment
- CAR^Ex8 protein level (Western blotting) [5]: marked decrease
- AdV genomic transduction / entry (qPCR of viral genome) [6]: significant decrease

Structure (SMILES): CC(C)C[C@H](NC(=O)[C@H](CO)NC(=O)CNC(=O)[C@H](C)NC(=O)[C@H](CCC(N)=O)NC(=O)[C@H](CO)NC(=O)[C@H](CCC(N)=O)NC(=O)[C@H](C)NC(=O)[C@H](CCC(N)=O)NC(=O)[C@@H]1CCCN1C(=O)[C@@H]1CCCN1C(=O)[C@H](CCCNC(=N)N)NC(=O)[C@H](CCCNC(=N)N)NC(=O)[C@H](CCCNC(=N)N)NC(=O)[C@H](CCC(N)=O)NC(=O)[C@H](CCCNC(=N)N)NC(=O)[C@H](CCCNC(=N)N)NC(=O)[C@H](CCCCN)NC(=O)[C@H](CCCCN)NC(=O)[C@H](CCCNC(=N)N)NC(=O)CN)C(=O)N[C@H](C(=O)O)C(C)C [TAT-ESAM] (H-GRKKRRQRRRPPQAQSQAGSLV-OH; N-terminus and C-terminus assumed)
- Transepithelial resistance (TER) ([7]; 50 μM daily for 16 days, versus control): No difference
- FITC-Dextran 70 kDa diffusion across epithelia ([7]; TAT-PDZ3 peptide study): no difference
- FITC-Dextran 4 kDa diffusion across epithelia ([7]; absence of EDTA, TAT-PDZ3 peptide study): no difference
- Toxicity to epithelia ([7]; primary human airway epithelia): no overt toxicity
